According to patent US12344599B2, “Prodigiosin analogs and methods of use” (Institute For Cancer Research, priority 2016, dated 2025):

How the values were obtained:
MDA-MB-231 = assay: CellTiterGlo cell viability assay, MDA-MB-231; assay type: cell-based; conditions: Homo sapiens; MDA-MB-231, breast cancer, p53 R280K, 72 hours
Description: (§1) • 1) Cell lines: HT29, SW480, DLD-1, HCT116, and p53-null HCT116 cells, H1975, MDA-MD-231, U251, FaDu, CAL-27, PANC-1, Aspc-1, and MRC5 were obtained from the ATCC and cultured as recommended. Cells were regularly authenticated by bioluminescence, growth, and morphologic observation. The cells were routinely examined for Mycoplasma and all cell lines underwent STR authentication. • 2) Western blotting: After treatment, protein lysates were collected for Western blot analysis. 15 μg of protein was used for SDS-PAGE. After primary and secondary antibody incubations, the signal was detected by chemiluminescent detection kit, imaged by Syngene (Imgen Technologies). […] The cell viability was assessed by CellTiterGlo bioluminescent cell proliferation assay (Promega), following the manufacturer's protocol. Bioluminescence imaging was measured using the IVIS imager. Percentage of cell viability (mean±SEM) at each dose was calculated against the respective DMSO control. The IC50 values were determined from the sigmoidal dose-response curves using GraphPad Prims4. • 4) Caspase activity assay: Cells were seeded in 96-well plate (1×10^4 cells/well). […] The caspase 3/7 activity was assessed by Caspase-Glo® 3/7 Assay kit (Promega), following the manufacturer's protocol. Bioluminescence imaging was measured using the IVIS imager. […]

CCD 841 Con = assay: CellTiterGlo cell viability assay, CCD 841 Con normal colon cells; assay type: cell-based; conditions: Homo sapiens, non-transformed colorectal epithelial cells, p53 WT, 72 hours
Description: Cells were seeded in 96-well plates (6×10^3 cells/well). Cells were treated with different concentrations of compounds or dimethyl sulfoxide (DMSO) as a control for 72 hours. The cell viability was assessed by CellTiterGlo bioluminescent cell proliferation assay (Promega), following the manufacturer's protocol. Bioluminescence imaging was measured using the IVIS imager. Percentage of cell viability (mean±SEM) at each dose was calculated against the respective DMSO control. The IC50 values were determined from the sigmoidal dose-response curves using GraphPad Prism.

HT29 tumor xenografts = assay type: in vivo, mouse
Description: One million HT29 were implanted subcutaneously in the flanks in each athymic nude mouse (female, 4-6 weeks old). The mice were divided at random into two groups and treated with the vehicle (10% DMSO, 20% Kollipher EL in PBS) and PG3-Oc (5 mg/kg, 3 times/week) by intraperitoneal injection when the tumor masses reached a size of 5 to 6 mm. Subsequently, tumor volumes were measured with a caliper and calculated using V=0.5×Length×Width^2. Twenty three days after treatment, the mice were euthanized and tumors were excised. H & E staining and Immunohistochemistry (IHC) of paraffin-embedded tumor and tissue sections were performed at the Fox Chase Cancer Center Histopathology Facility.
To evaluate the antitumor effects of PG3-Oc in vivo, a human tumor xenograft model was established by subcutaneous injection of human colon cancer cells into nude mice. After the tumor volume reached approximately 50 mm^3, mice were treated by i.p. injection with vehicle or PG3-Oc at 5 mg/kg 3 times weekly for 2 weeks.

HCT116 p53−/− cells = assay: qRT-PCR of p53 target gene mRNA, HCT116 p53−/−; assay type: cell-based, human; conditions: 1 μM
Description: as §1

ASPC-1 = assay: CellTiterGlo cell viability assay, ASPC-1; assay type: cell-based; conditions: Homo sapiens, ASPC1; ASPC-1, pancreatic cancer, p53 frameshift, 72 hours
Description: as §1

[1] = nude mice, 5 mg/kg i.p. 3 times weekly

CCCCCCCCOC(=O)CCc1c(C)[nH]c(/C=C2\N=C(c3ccc[nH]3)C=C2OC)c1C [PG3-Oc, Octyl (Z)-3-(5-((4′-methoxy-1H,5′H-[2,2′-bipyrrol]-5′-ylidene)methyl)-2,4-dimethyl-1H-pyrrol-3-yl)propanoate]
IC50 (MDA-MB-231): 242 nM | IC50 (CCD 841 Con): 375 nM | body weight versus vehicle treatment group (HT29 tumor xenografts; mouse, in vivo, ip, 5 mg/kg): No significant difference | Ki-67 expression in tumors as compared with the vehicle group (HT29 tumor xenografts; [1]): significantly decreased | PUMA in tumors as compared with controls (HT29 tumor xenografts; [1]): significantly induced | tumor volume as compared with vehicle-treated mice (HT29 tumor xenografts; [1]): significantly reduced | change of DR5 mRNA (HCT116 p53−/− cells): no significant change | induction of p21 mRNA (HCT116 p53−/− cells; 8 and 19 hours post-treatment): Over 3 fold | IC50 (ASPC-1): 39.2 nM
